Results as given in patent US20250066290A1, “DHODH INHIBITORS CONTAINING A CARBOXYLIC ACID BIOISOSTERE” (IMMUNIC AG, priority 2021, published 2025).

What was measured:
SARS-CoV-2 Delta variant = test: microbe, parasite or virus in culture; type: cell-based; conditions: Severe acute respiratory syndrome coronavirus 2; Caco-2 cells, dsRNA immunofluorescence
[1] = tested on: SARS-CoV-2 Omicron variant; test: microbe, parasite or virus in culture; type: cell-based; conditions: Severe acute respiratory syndrome coronavirus 2; Caco-2 cells, dsRNA immunofluorescence; read-out: EC50 Omikron

Molecule `[2H]C([2H])([2H])Oc1cccc(-c2cc(F)c(NC(=O)c3ccsc3C(=O)NOC)c(F)c2)c1` [Example 9, N3-(3,5-Difluoro-3′-(methoxy-d3)-[1,1′-biphenyl]-4-yl)-N2-methoxythiophene-2,3-di-carboxamide] has an EC50 (SARS-CoV-2 Delta variant) of less than 3 nM and an EC50 [1] of less than 3 nM.
